By IC50 is commonly meant the concentration needed to halve the response being measured.

Consider two compounds from ChEMBL document CHEMBL6127029, “Glutathione-dependent degradation of SMARCA2/4 for targeted lung cancer therapy with improved selectivity” (Eur J Med Chem, 2024).

Calls of active or inactive are those of the source. The calls are words filed in the database; no cut-off is given here.

The subject of data set [1] is A549. In words: Reduction in intracellular GSH level in human A549 cells by measuring decrease in fluorescence signal at 10 uM incubated for 10 mins in presence of GSH scavenger NEM by fluorescence microscopic analysis. In kind it is functional, cell-based.
The target of data set [2] is T1, von Hippel-Lindau disease tumor suppressor/SWI/SNF-related matrix-associated actin-dependent regulator of chromatin subfamily A member 2 (Homo sapiens) (UniProt P51531+P40337). In words: PROTAC activity at VHL/SMARCA2 in human A549 cells harboring shRNA mediated VHL knockdown assessed as induction of SMARCA2 degradation at 0.1 to 2 uM incubated for 8 hrs by Western blotting analysis. Particulars: dose 0.1-2 µM. In kind it is cell-based. (In general: Immunoblotting shows a protein as a band on a membrane.)
T1 sequence (P40337 whole entry, looked up): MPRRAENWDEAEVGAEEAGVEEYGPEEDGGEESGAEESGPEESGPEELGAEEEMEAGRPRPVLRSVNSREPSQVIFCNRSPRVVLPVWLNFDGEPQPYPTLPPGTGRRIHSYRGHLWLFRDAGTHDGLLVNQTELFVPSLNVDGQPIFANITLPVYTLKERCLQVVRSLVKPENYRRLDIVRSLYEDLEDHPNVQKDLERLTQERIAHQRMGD
T1 sequence (P51531 whole entry, looked up): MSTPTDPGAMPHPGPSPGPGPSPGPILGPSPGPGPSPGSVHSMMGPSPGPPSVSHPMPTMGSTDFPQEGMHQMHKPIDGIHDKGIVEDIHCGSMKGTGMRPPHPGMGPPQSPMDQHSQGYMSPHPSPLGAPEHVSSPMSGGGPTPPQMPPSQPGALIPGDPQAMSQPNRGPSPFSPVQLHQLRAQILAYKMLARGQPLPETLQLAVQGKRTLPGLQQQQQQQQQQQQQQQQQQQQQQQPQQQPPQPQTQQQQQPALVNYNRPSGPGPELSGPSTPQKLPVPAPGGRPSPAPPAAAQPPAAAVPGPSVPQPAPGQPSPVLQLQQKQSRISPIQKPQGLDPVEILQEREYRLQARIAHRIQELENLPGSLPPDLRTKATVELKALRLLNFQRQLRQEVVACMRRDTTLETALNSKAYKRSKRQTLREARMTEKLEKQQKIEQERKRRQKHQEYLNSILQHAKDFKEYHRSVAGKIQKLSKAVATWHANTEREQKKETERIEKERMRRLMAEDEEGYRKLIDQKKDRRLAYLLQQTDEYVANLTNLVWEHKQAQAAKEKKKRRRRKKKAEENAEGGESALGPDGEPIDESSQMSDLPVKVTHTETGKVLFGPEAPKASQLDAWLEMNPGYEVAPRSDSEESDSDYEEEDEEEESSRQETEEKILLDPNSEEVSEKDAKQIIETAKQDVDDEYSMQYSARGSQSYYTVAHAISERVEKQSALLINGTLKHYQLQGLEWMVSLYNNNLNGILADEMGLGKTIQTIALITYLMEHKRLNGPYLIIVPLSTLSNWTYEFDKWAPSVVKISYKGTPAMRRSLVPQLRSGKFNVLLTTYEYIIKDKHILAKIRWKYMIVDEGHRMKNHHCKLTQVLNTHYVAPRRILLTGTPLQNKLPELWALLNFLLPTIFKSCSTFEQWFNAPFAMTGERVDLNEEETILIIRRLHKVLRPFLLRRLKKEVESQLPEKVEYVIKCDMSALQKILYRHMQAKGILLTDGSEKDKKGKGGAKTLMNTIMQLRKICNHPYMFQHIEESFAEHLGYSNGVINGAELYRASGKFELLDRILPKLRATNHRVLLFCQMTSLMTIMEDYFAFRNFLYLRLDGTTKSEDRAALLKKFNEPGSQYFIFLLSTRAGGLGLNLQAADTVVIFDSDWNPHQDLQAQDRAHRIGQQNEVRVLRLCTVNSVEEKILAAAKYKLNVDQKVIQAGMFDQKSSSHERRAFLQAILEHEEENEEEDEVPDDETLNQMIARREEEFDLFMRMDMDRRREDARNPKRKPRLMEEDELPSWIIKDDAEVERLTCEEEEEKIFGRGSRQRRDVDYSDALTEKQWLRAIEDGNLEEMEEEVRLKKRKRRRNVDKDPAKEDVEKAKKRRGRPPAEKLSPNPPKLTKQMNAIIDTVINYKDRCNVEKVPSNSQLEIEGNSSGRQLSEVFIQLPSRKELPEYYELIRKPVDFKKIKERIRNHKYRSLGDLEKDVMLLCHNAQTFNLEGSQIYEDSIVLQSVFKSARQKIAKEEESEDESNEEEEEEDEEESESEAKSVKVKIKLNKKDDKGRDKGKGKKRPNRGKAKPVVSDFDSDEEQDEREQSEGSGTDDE

The target in data set [3] is T1, von Hippel-Lindau disease tumor suppressor/SWI/SNF-related matrix-associated actin-dependent regulator of chromatin subfamily A member 2 (Homo sapiens). As to the kind of experiment: PROTAC activity at VHL/SMARCA2 in human A549 cells assessed as induction of SMARCA2 degradation at 1 uM pretreated with MLN4924 followed by compound addition and measured after 8 hrs by Western blotting analysis. Format: cell-based.

Data set [4] has the same target. As to the kind of experiment: PROTAC activity at VHL/SMARCA2 in human 786-0 cells harboring mutated VHL assessed as induction of SMARCA2 degradation at 0.1 to 5 uM incubated for 8 hrs by Western blotting analysis. In kind it is cell-based. The note with it: dose 0.1-5 µM.
A short description of data set [5]: Cytotoxicity against human HuLEC-5a cells assessed as inhibition of cell growth incubated for 3 days by MTT assay. In kind it is toxicity, cell-based. A general note: Formazan colour is commonly taken as a measure of viable cells.
For data set [6], the target named is T1, von Hippel-Lindau disease tumor suppressor/SWI/SNF-related matrix-associated actin-dependent regulator of chromatin subfamily A member 2 (Homo sapiens). In words: PROTAC activity at VHL/SMARCA2 in human A549 cells assessed as induction of SMARCA2 degradation at 1 uM by Western blotting analysis. In kind it is cell-based. The note with it: TDE = time-dependent effect.

Data set [7] has the same target. In words: PROTAC activity at VHL/SMARCA2 in human NCI-H1299 cells assessed as induction of SMARCA2 degradation at 1 uM by Western blotting analysis. Format: cell-based. Particulars: TDE = time-dependent effect.
Data set [8] addresses T2, von Hippel-Lindau disease tumor suppressor/SWI/SNF-related matrix-associated actin-dependent regulator of chromatin subfamily A member 4 (Homo sapiens) (UniProt P51532+P40337). In words: PROTAC activity at VHL/SMARCA4 in human HEK-293T cells assessed as induction of SMARCA4 degradation at 1 uM by Western blotting analysis. In kind it is cell-based. Particulars: TDE = time-dependent effect.

Data set [9] concerns the target T1, von Hippel-Lindau disease tumor suppressor/SWI/SNF-related matrix-associated actin-dependent regulator of chromatin subfamily A member 2 (Homo sapiens). In words: PROTAC activity at VHL/SMARCA2 in human HEK-293T cells assessed as induction of SMARCA2 degradation at 1 uM incubated for 24 hrs by Western blotting analysis relative to control. Format: cell-based.

Data set [10] concerns the target T2, von Hippel-Lindau disease tumor suppressor/SWI/SNF-related matrix-associated actin-dependent regulator of chromatin subfamily A member 4 (Homo sapiens). As to the kind of experiment: PROTAC activity at VHL/SMARCA4 in human HEK-293T cells assessed as induction of SMARCA4 degradation at 1 uM incubated for 24 hrs by Western blotting analysis relative to control. In kind it is cell-based.

In data set [11] the test system is HuLEC-5a. In words: Inhibition of cell migration in human HuLEC-5a cells at 10 uM incubated for 36 hrs by scratch wound healing based fluorescent microscopic analysis. Format: functional.
Data set [12] deals with T1, von Hippel-Lindau disease tumor suppressor/SWI/SNF-related matrix-associated actin-dependent regulator of chromatin subfamily A member 2 (Homo sapiens). As to the kind of experiment: PROTAC activity at VHL/SMARCA2 in human NCI-H1299 cells harboring shRNA mediated VHL knockdown assessed as induction of SMARCA2 degradation at 0.1 to 2 uM incubated for 8 hrs by Western blotting analysis. Format: cell-based. Particulars: dose 0.1-2 µM.

Data set [13] concerns the target T2, von Hippel-Lindau disease tumor suppressor/SWI/SNF-related matrix-associated actin-dependent regulator of chromatin subfamily A member 4 (Homo sapiens). In words: PROTAC activity at VHL/SMARCA4 in human HuLEC-5a cells assessed as induction of SMARCA4 degradation at 1 uM by Western blotting analysis. In kind it is cell-based. Particulars: TDE = time-dependent effect.

Data set [14] has as its system A549. In words: Cytotoxicity against human A549 cells assessed as inhibition of cell growth incubated for 3 days by MTT assay. Format: functional, cell-based. Particulars: A549, 72 h.
Data set [15] has as its target T1, von Hippel-Lindau disease tumor suppressor/SWI/SNF-related matrix-associated actin-dependent regulator of chromatin subfamily A member 2 (Homo sapiens). As to the kind of experiment: PROTAC activity at VHL/SMARCA2 in human HEK-293T cells assessed as induction of SMARCA2 degradation at 1 uM by Western blotting analysis. Format: cell-based. The note with it: TDE = time-dependent effect.

Data set [16] relates to A549. As to the kind of experiment: Inhibition of cell migration in human A549 cells at 10 uM incubated for 36 hrs by scratch wound healing based fluorescent microscopic analysis. Format: functional.
The subject of data set [17] is NCI-H1299. As to the kind of experiment: Cytotoxicity against human NCI-H1299 cells assessed as inhibition of cell growth incubated for 3 days by MTT assay. In kind it is functional, cell-based. The note with it: NCI-H1299, 72 h.
Data set [18] has as its target T2, von Hippel-Lindau disease tumor suppressor/SWI/SNF-related matrix-associated actin-dependent regulator of chromatin subfamily A member 4 (Homo sapiens). As to the kind of experiment: PROTAC activity at VHL/SMARCA4 in human 786-0 cells harboring mutated VHL assessed as induction of SMARCA4 degradation at 0.1 to 5 uM incubated for 8 hrs by Western blotting analysis. In kind it is cell-based. Particulars: dose 0.1-5 µM.

In data set [19] the target is T1, von Hippel-Lindau disease tumor suppressor/SWI/SNF-related matrix-associated actin-dependent regulator of chromatin subfamily A member 2 (Homo sapiens). In words: PROTAC activity at VHL/SMARCA2 in human A549 cells assessed as induction of SMARCA2 degradation at 1 uM incubated for 24 hrs by Western blotting analysis. Format: cell-based.
For data set [20] the target is unchanged. In words: PROTAC activity at VHL/SMARCA2 in human HuLEC-5a cells assessed as induction of SMARCA2 degradation at 1 uM by Western blotting analysis. The note with it: TDE = time-dependent effect. Format: cell-based.
Data set [21] has the same target. As to the kind of experiment: PROTAC activity at VHL/SMARCA2 in human A549 cells assessed as induction of SMARCA2 degradation at 1 uM pretreated with MG132 followed by compound addition and measured after 8 hrs by Western blotting analysis. In kind it is cell-based.

T2 sequence (P40337 whole entry, looked up): as the sequence (P40337 whole entry, looked up) above
T2 sequence (P51532 whole entry, looked up): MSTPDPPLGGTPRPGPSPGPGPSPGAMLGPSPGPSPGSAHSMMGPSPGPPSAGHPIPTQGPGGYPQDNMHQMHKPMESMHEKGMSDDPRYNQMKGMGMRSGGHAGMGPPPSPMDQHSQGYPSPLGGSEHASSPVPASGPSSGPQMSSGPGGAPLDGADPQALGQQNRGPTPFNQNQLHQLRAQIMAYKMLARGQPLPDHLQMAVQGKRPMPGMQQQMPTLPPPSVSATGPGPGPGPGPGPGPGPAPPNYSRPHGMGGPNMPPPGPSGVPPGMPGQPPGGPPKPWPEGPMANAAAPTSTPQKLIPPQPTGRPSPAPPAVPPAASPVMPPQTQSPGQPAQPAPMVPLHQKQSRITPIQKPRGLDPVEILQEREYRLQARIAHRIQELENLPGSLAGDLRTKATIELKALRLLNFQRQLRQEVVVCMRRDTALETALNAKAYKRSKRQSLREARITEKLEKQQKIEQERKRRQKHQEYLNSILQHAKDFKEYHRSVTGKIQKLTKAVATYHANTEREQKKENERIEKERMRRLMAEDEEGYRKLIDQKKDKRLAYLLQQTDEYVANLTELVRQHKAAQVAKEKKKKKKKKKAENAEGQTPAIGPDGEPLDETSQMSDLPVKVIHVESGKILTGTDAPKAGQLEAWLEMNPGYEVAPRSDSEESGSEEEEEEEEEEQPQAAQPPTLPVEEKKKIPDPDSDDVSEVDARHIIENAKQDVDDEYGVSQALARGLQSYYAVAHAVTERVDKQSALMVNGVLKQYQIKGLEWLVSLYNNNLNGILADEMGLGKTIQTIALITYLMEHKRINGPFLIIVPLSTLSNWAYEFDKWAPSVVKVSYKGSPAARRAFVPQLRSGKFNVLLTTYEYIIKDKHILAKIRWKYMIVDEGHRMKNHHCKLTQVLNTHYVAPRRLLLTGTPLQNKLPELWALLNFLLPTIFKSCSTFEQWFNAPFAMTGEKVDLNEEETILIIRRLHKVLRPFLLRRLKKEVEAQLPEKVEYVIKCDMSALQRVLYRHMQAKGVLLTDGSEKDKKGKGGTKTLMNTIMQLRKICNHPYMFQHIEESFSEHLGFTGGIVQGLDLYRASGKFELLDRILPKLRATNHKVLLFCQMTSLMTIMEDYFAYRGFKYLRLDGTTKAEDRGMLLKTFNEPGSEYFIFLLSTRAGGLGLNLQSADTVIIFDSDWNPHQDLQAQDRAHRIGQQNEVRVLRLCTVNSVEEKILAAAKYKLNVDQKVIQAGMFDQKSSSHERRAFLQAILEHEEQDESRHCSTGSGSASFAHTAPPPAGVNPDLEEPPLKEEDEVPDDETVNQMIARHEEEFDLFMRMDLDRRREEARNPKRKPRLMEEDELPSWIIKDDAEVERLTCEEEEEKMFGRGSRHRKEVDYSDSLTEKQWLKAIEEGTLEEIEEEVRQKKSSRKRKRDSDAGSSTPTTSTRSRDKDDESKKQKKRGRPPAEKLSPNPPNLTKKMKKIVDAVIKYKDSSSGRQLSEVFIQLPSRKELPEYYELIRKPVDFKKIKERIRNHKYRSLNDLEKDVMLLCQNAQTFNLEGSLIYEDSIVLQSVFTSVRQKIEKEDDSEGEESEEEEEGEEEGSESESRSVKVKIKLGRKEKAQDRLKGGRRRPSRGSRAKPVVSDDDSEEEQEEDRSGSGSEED

Regarding `CCN(CCN1C(=O)C=CC1=O)c1ccc2c(C)cc(=O)oc2c1`, the outcome in [1] was Active.

`Cc1ncsc1-c1ccc(CNC(=O)[C@@H]2C[C@@H](O)CN2C(=O)[C@@H](NC(=O)CN2CCN(c3cc(-c4ccccc4O)nnc3N)CC2)C(C)(C)C)cc1`: the outcome in [2], in data set [3], in [4], in data set [12], in data set [18] and in data set [21] was inactive. Further, the IC50 at 3 days in data set [5] worked out at 24.5 µM. The Activity entry in data set [6] was “Tde”; in [7], “Tde”; in data set [8] it was “Tde”; in data set [9], < 10%; in data set [10] it was < 10%; in [13], “Tde”. For the same compound, the Activity entry in [15] and in data set [20] was “Tde” each time. In [11], the inhibition result was “inactive”. Further, the IC50 turned out to be 1300 nM in data set [14] and 1400 nM in [17]. Also, in data set [16], the inhibition result is “Active”. Also, the result in data set [19] was Active.
